Consider 11 compounds from patent US10385005B2, “Compositions and methods for glucose transport inhibition” (OHIO UNIVERSITY, priority 2010, dated 2019).

Usually IC50 stands for the concentration that inhibits the measured activity by half.

SMILES strings stand for the structures.

For data set [1], the system named is MCF12A normal breast cells. As to the kind of experiment: MTT cell death assay, MCF12A. In kind it is cell-based, human. The conditions noted are these: concentration = IC50 for each compound. From the text: (§1) Comparative assays using WZB-27, WZB-115, as well as two known anticancer drugs, cisplatin and taxol, were completed. In Table 4, the percent cell death in cancer cell lines as well as normal cell lines is shown. […] Comparing the breast cancer cell line MCF7, WZB-27 and WZB-115 kill somewhat fewer cells relative to taxol but more than cisplatin. Both WZB-27 and WZB-115 kill fewer of the normal breast cell line MCF12A than taxol or cisplatin. WZB-27 kills fewer of the normal breast cell line MCF12A than taxol or cisplatin while WZB-115 kills no more normal cells than either cisplatin or taxol.
(§2) MTT assays are performed by the following well-established method. In a 96 well tissue culture plate 10,000 cells are plated in each well. The cells are incubated in presence or absence of the compounds for 18 h. 3-(4,5-Dimethylthiazol-2-yl)-2,5-diphenyltetrazolium bromide (MTT) is dissolved in PBS (10 mg/ml) and filter sterilized. Three hours before the end of the incubation 20 μL of MTT solution is added to each well containing cells in a 96-well plate. The plate is incubated in an incubator at 37° C. for 3 h. Media is aspirated gently and 200 μL of DMSO is added to each well to dissolve formazan crystals. The absorbance is measured at 550 nm for cell viability.
For orientation: Formazan colour is commonly taken as a measure of viable cells.

Another data set has as its system H1299 lung cancer cells. As to the kind of experiment: MTT cell growth / viability assay, H1299. In kind it is cell-based, human. The conditions noted are these: for % cell death: concentration = IC50 for each compound. How it is done: (§3) Briefly, H1299 cancer cells were treated with or without the compounds (30 μM) in triplicates for 10 min before the glucose uptake assay. Cellular glucose uptake was measured by incubating cells in the glucose-free KRP buffer with […] [^3H]2-deoxyglucose (specific activity, 40 Ci/mmol) for 30 min in the absence or presence of compounds. After the cells were washed with ice-cold PBS and lysed by 0.2 N NaOH, the cell lysates were transferred to scintillation counting vials and the radioactivity in the cell lysates was quantified by liquid scintillation counting. Cell growth measurements were performed using an MTT assay in hexads in a 96-well tissue culture plate with 5,000 cells plated in each well. The cells were incubated in presence or absence of the compounds (30 μM) for 48 h. After incubation, cell viabilities were assayed using a 96-well SPECTRAMAX™ absorbance/fluorescence plate reader (Molecular Devices).
as §2

Another data set has as its system MCF7 breast cancer cells. Briefly: MTT cell death assay, MCF7. In kind it is cell-based, human. Particulars: concentration = IC50 for each compound.
Excerpt: as §1, §2

The test system of a further data set is NL20 normal lung cells. As to the kind of experiment: MTT cell death assay, NL20. In kind it is cell-based, human. Particulars: concentration = IC50 for each compound.
Excerpt: as §1, §2

The test system of a further data set is RKO cells. As to the kind of experiment: Glucose uptake assay (3H 2-DG), RKO. In kind it is cell-based, human. The conditions noted are these: 30 μM. As to the method:
(§4) Cells were treated with α-PGG for 20 minutes before ^3H-labeled 2-DG. Thirty minutes after the addition of 2-DG, cells were harvested, lysed, and counted for their respective glucose uptake. Samples: 1. Mock; 2. […] WZB-25 (30 μM); 5. WZB-26 (30 μM); and 6. WZB-27 (30 μM).
(§5) Compounds 1a and 2a were initially prepared as potential anti-diabetic analogs of α-PGG (FIG. 1). Given the tight SAR of this class of compounds, it was hypothesized that a more rigid scaffold (i.e., a benzene ring) might enhance the activity.

A further data set deals with H1299 cells. Briefly: Standard glucose uptake assay, H1299. In kind it is cell-based, human. Particulars: for Glucose transport inhibition (%) / glucose uptake inhibition compared with fasentin: H1299; for glucose uptake inhibition compared with fasentin: all compounds 30 μM, FIG. 22A. How it is done:
as §3
Cancer cells are treated with or without the compounds for 10 min before the glucose uptake assay. Cellular glucose uptake will be measured by incubating cells in glucose-free RPMI 1640 with […] [^3H]2-deoxyglucose (specific activity, 40 Ci/mmol) for 30 min in the absence and presence of compounds. After the cells are washed with ice-cold PBS and lysed, the cell lysates will be transferred to scintillation counting vials and the radioactivity in the cell lysates is quantified by liquid scintillation counting.

In data set [2] the test system is HeLa cells. As to the kind of experiment: Glucose uptake assay (3H 2-DG), HeLa. In kind it is cell-based, human. How it is done: Cells were treated with α-PGG for 20 minutes before ^3H-labeled 2-DG. […] Samples: 1. Mock; 2. […] WZB-25 (30 μM); 5. WZB-26 (30 μM); and 6. WZB-27 (30 μM). Compounds 1a and 2a were initially prepared as potential anti-diabetic analogs of α-PGG (FIG. 1). Given the tight SAR of this class of compounds, it was hypothesized that a more rigid scaffold (i.e., a benzene ring) might enhance the activity. […] Error bars in FIG. 8 represent standard deviations of the measurements. Samples were done in triplicates and the experiment was repeated three times.

In the next data set the test system is MCF-7 cells. Briefly: Glucose uptake assay (3H 2-DG), MCF-7. In kind it is cell-based, human. Particulars: 30 μM. As to the method:
as §4, §5

The test system of data set [3] is insulin-like glucose uptake stimulatory activity. As to the kind of experiment: Insulin-like activity of PGG analogs. In kind it is cell-based.
In another data set the test system is cancer cells. As to the kind of experiment: Anticancer screens of hydrolysis products. In kind it is cell-based. From the text: (§6) In summary, a library of multiphenolic ester compounds as novel inhibitors of basal glucose transport and anticancer agents with a potential new target, basal glucose transport, were synthesized.
A further data set deals with basal glucose uptake. Briefly: Glucose uptake of possible hydrolyzed products (FIG. 2). In kind it is cell-based.
Excerpt: as §6

The test system of a further data set is basal glucose transport. Particulars: known glucose transport inhibitors, positive controls; cited from earlier work.
In data set [4] the test system is PARP protein (Caspase 3 substrate) in H1299 lung cancer cells. Briefly: PARP cleavage assay, H1299. In kind it is cell-based, human. From the text:
A. Cell viability assay in RKO colon cancer cells with α-PGG, W25 (WZB-25), W27 (WZB-27), and C7 treatments. RKO cells contain high levels of p53 while RKO E6 cells contain much lower levels of p53. B. Apoptosis assay in H1299 lung cancer cells using cleaved PARP protein (89 kDa) as an indicator for Caspase 3 since PARP is a substrate of activated Caspase 3.
To determine if anti-cancer compounds W25 and W27 kill cancer cells using a p53 dependent or a p53-independent pathway, a cell killing assay was performed in RKO and RKO E6 cell lines. The difference between the two cell lines is that RKO cells contain much higher levels of p53 than RKO E6 cells.
Cells were harvested from plates, re-suspended with 3× sample buffer, and boiled for 5 min. Approximately […] of protein extract was loaded after protein concentration measurement by Pierce bicinchoninic acid (BCA) protein assay (Pierce Biotechnology, Inc. Rockford, Ill.). Samples were run on a 10% Bio-Tris NuPAGE gel (Invitrogen) and transferred to a polyvinylidene difluoride membrane (PVDF, Biorad). The membrane was incubated with antibodies specific to p53, or PARP, or β-actin. Specific protein bands were visualized after the development of film. Antibodies for p53 were purchased from Santa Cruz Biotechnology, Inc. (Santa Cruz, Calif., USA). […]

Data set [5] relates to RKO and RKO E6 cell lines. Briefly: Cell killing assay in RKO and RKO E6 cells. Particulars: high vs low p53. In kind it is cell-based, human.
Excerpt: A. Cell viability assay in RKO colon cancer cells. RKO cells contain high levels of p53 while RKO E6 cells contain much lower levels of p53. […] RKO cells have higher level of p53 while RKO-E6 is p53 deficient. ***p<0.001, **p<0.01. C.
Data set [6] has as its system three different cancer cell lines. The conditions noted are these: all compounds 60 μM, FIG. 22B. As to the method: Known basal glucose compound fasentin and compound inhibitors generated in house were compared side by side in both glucose uptake assay and cell viability (MTT) assay. Glucose uptake or cell viability of mock treated samples was arbitrarily assigned a value of 100%. A. Glucose uptake assay in H1299 cancer cells. Concentration for all compounds was 30 μM. B. Cell viability assays in three different cancer cell lines. Concentration for all compounds was 60 μM.
Fasentin is a published inhibitor of basal glucose transport and known GLUT1 inhibitor.

Data set [7] deals with HeLa cells. As to the kind of experiment: Apoptosis (ELISA) assay. In kind it is cell-based, human. The conditions noted are these: FIG. 5B. For orientation: In an ELISA, binding on a coated surface is turned into a signal by an enzyme label.
Data set [8] has as its system RKO (colon), HeLa (cervical), and MCF-7 (breast) human cancer cells. As to the kind of experiment: Cell viability (MTT) assay of α-PGG treated cancer cells. In kind it is cell-based. Particulars: FIG. 5A. From the text:
(§7) A. α-PGG treatment led to 70-80% reduction of cell viability as measured by a cell viability (MTT) assay. […] C. α-PGG treatment of HeLa cells led to a decrease in G1 phase cells but a significant increase (˜3-fold) in apoptotic cells as determined by an antibody-coupled flow cytometry study.

The subject of data set [9] is HeLa cells. Briefly: Antibody-coupled flow cytometry study. The conditions noted are these: FIG. 5C. In kind it is cell-based, human.
Excerpt: as §7
A general note: In flow cytometry, cells or beads pass a laser one at a time.

`N.N.[Cl][Pt][Cl]` [Cisplatin, cisplatin]: the “% cell death” value came out at 69.6 ± 2.9% in data set [1], 26.4 ± 3.8% in the data set with H1299 lung cancer cells, 27.0 ± 1.9% with MCF7 breast cancer cells and 58.4 ± 7.0% with NL20 normal lung cells.
As to `COc1cccc(OC(=O)c2cc(O)c(O)c(O)c2)c1OC(=O)c1cc(O)c(O)c(O)c1` [Compound 1a], the “Glucose transport inhibitory activity (%)” value was found to be 57.2 ± 4.4% with RKO cells; 46.3 ± 3.3% in the data set with HeLa cells [2] (Hela, 30 μM); 33.0 ± 0.5% in the data set on MCF-7 cells. Moreover, the “Glucose transport inhibition (%)” value in the data set on H1299 cells (Table 2, 30 μM, untreated cells 0% inhibition) is given as 58.4±6.3%. The “% inhibition of basal glucose transport” value in the data set on H1299 cells (Table 3, 30 μM in H1299 cells, listed as WZB-26) turned out to be 84.0 ± 1.9%. In addition, the “Cell growth inhibition (%)” value with H1299 lung cancer cells (Table 2, 30 μM, 48 h) stood at 36.0±6.1%. Also, in data set [3], the insulin-like activity result is “without any insulin-like activity”.
In the case of `Oc1cccc(F)c1O` [Compound 6c], the “activity in anticancer screens” value with cancer cells is listed as “none of these compounds showed any activity in anticancer screens”. Also, the “glucose uptake inhibition activity” value in the data set on basal glucose uptake is recorded as “none of these compounds had any glucose uptake inhibition activity”.
The like results for `Oc1cccc(O)c1O` [Compound 8, pyrogallol] were, in that order, “none of these compounds showed any activity in anticancer screens” and “none of these compounds had any glucose uptake inhibition activity”.
As to `CC(=O)CC(=O)Nc1ccc(Cl)c(C(F)(F)F)c1` [Fasentin, fasentin], the concentration for half-maximal inhibition (IC50) with basal glucose transport was not below 50 µM.
On to `CC(=O)O[C@H]1C(=O)[C@@]2(C)[C@H]([C@H](OC(=O)c3ccccc3)[C@]3(O)C[C@H](OC(=O)[C@H](O)[C@@H](NC(=O)c4ccccc4)c4ccccc4)C(C)=C1C3(C)C)[C@]1(OC(C)=O)CO[C@@H]1C[C@@H]2O` [Taxol, taxol], for which the “% cell death” value stood at 73.7 ± 5.6% in data set [1], 45.6 ± 4.9% in the data set on H1299 lung cancer cells, 61.4 ± 7.1% in the data set on MCF7 breast cancer cells and 53.8 ± 4.2% with NL20 normal lung cells.
Take `O=C(O[C@@H]1[C@@H](OC(=O)c2cc(O)c(O)c(O)c2)[C@@H]2OC[C@@H](O2)[C@H]1OC(=O)c1cc(O)c(O)c(O)c1)c1cc(O)c(O)c(O)c1` [WZB-25]: the PARP cleavage entry in [4] is recorded as “cleaved into a 89 kDa protein”. For the same compound, the “cell killing / viability RKO vs RKO E6” value in data set [5] was “killed about the same amounts of RKO cells and RKO E6 cells”. In the data set on HeLa cells [2] (HeLa, FIG. 8), the “dose dependence of basal glucose transport inhibition” value is “dose-dependent manner”.
`Oc1cccc(COc2cccc(OCc3cccc(O)c3)c2OCc2cccc(O)c2)c1` [WZB-131]: in the data set with H1299 cells, the “glucose uptake inhibition compared with fasentin” value was “stronger inhibition than fasentin”. Further, the “Glucose transport inhibition (%)” value in the data set with H1299 cells (Table 12) was 95.0 ± 1.6%. In the data set with H1299 lung cancer cells (Table 12), the “Cell growth inhibition (%)” value is 12.9 ± 2.6%. Besides, the “cancer cell death compared with fasentin” value in data set [6] is “more cancer cell death than fasentin”.
In the same order, the values of `Oc1cccc(COc2ccc(Cl)cc2OCc2cccc(O)c2)c1` [WZB-133] are “stronger inhibition than fasentin”, 91.2 ± 0.8%, 14.3 ± 2.7% and “more cancer cell death than fasentin”.
In the case of `O=c1cc(-c2ccc(O)cc2)oc2cc(O)cc(O)c12` [apigenin], the IC50 with basal glucose transport is not below 60 µM.
On to `O=C(OC[C@H]1O[C@@H](OC(=O)c2cc(O)c(O)c(O)c2)[C@H](OC(=O)c2cc(O)c(O)c(O)c2)[C@@H](OC(=O)c2cc(O)c(O)c(O)c2)[C@@H]1OC(=O)c1cc(O)c(O)c(O)c1)c1cc(O)c(O)c(O)c1` [α-PGG, penta-galloyl-glucose], for which the increase in apoptosis result in the data set with HeLa cells [7] is recorded as “more than 2 fold”. For the same compound, the “concentration at which glucose transport inhibition starts” value in the data set with HeLa cells [2] (HeLa, 20 min preincubation) came to 5 µM. The “reduction of cell viability” value in data set [8] is recorded as 70-80%. Further, the “increase in apoptotic cells” value in the data set with HeLa cells [9] is reported as approximately 3 fold.
